Experiment [1] has as its target T1, MtEis (Mycobacterium tuberculosis, UniProt P9WFK7). The experiment is described as follows: Steady-state acetyltransferase assays (DTNB, absorbance at 412 nm), bisubstrate kinetic analysis. It is filed as biochemical.
Experiment [2] deals with T1, MtEis. Particulars: cited from earlier work.

Read-outs that look alike come from different tables or passages of the source.

T1 sequence (P9WFK7 whole entry, looked up): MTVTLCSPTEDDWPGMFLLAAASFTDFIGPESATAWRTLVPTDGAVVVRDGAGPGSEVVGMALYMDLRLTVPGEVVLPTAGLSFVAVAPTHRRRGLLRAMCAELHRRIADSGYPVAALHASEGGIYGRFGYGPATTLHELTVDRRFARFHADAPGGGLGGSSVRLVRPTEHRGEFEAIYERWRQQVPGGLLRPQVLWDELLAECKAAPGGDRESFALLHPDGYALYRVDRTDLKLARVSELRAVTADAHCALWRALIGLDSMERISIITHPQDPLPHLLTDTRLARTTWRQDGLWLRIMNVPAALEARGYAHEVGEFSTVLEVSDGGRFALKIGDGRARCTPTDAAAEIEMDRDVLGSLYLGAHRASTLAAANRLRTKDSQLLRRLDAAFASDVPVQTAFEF

Turning to `CC(=O)SCCNC(=O)CCNC(=O)[C@H](O)C(C)(C)COP(=O)(O)OP(=O)(O)OC[C@H]1O[C@@H](n2cnc3c(N)ncnc32)[C@H](O)[C@@H]1OP(=O)(O)O` [AcCoA, acetyl coenzyme A], the “K d,AcCoA(E) lower than that for AcCoA binding to Eis from M. smegmatis” value in experiment [1] (MtEis versus M. smegmatis Eis value of ref 6) is reported as “about 4 fold”. Besides, the Kd in experiment [1] (binding of AcCoA to free MtEis, read-out: K d,AcCoA(E)) was 18 ± 14 µM; in experiment [1] (binding of AcCoA to the KAN bound enzyme, read-out: K d,AcCoA(AG•E)) it was 45 ± 37 µM; in experiment [1] (binding of AcCoA to the NEO bound enzyme, read-out: K d,AcCoA(AG•E)), 111 ± 62 µM.

As for kanamycin A, the “k cat (microscopic rate constant of the acetylation step)” value in experiment [1] (AG as substrate of MtEis, random sequential mechanism fit, Tris 50 mM, pH 8.0) was 0.68 ± 0.15 s⁻¹. Further, the “extent of acetylation by MtEis” value in experiment [2] is “di-acetylated”.

As for `NC[C@@H]1O[C@H](O[C@H]2[C@@H](O)[C@H](O[C@@H]3[C@@H](O)[C@H](N)C[C@H](N)[C@H]3O[C@H]3O[C@H](CN)[C@@H](O)[C@H](O)[C@H]3N)O[C@@H]2CO)[C@H](N)[C@@H](O)[C@@H]1O` [NEO, neomycin B], the “higher affinity for the AcCoA bound enzyme than KAN” value in experiment [1] (NEO versus KAN, K d,AG(AcCoA•E)) is “approximately 3 fold”. The Kd in experiment [1] (binding of AG to free enzyme, from thermodynamic cycle K d,AcCoA(E) K d,AG(AcCoA•E)/K d,AcCoA(AG•E), read-out: K d,AG(E)) amounted to 22 ± 17 µM; in experiment [1] (binding of AG to the AcCoA bound enzyme, simultaneous fit of KAN and NEO acetylation data, read-out: K d,AG(AcCoA•E)), 135 ± 53 µM. For the same compound, in experiment [2], the “extent of acetylation by MtEis” value is listed as “tri-acetylated”.
